In brackets after ≈: the same amount, converted by molar mass.
What was measured:
[1] = tested on: mouse lymphocytic leukemia P388 tumor cells; experiment: in vitro cytotoxicity, P388 tumor cells, 72 hours (Test 4); format: cell-based; settings: 50% inhibition of cell growth, 37° C.
Procedure: A suspension of mouse lymphocytic leukemia P388 tumor cells was prepared from a diluted ascitic fluid using Hanks' solution after 7 days of tumor implantation, and centrifuged at 1000 rpm for 15 minutes at cold temperature. The cells were adjusted at a concentration of 2.5×10^6 cell/ml in MEM Dulbecco medium supplemented with 10% foetal bovine serum, penicillin G (60 μg/ml) and streptomycin (20 μg/ml). Then, cells were treated with the graded doses of the test compounds in plastic tissue culture dishes at 37° C. and incubated for 72 hours in humidified atmosphere of 5% carbon dioxide. Concentration of the substance required for 50% inhibition of cell growth (IC50 value) (μg/ml) was determined by plotting the logarithms of the drug concentration versus the growth rate (percentage of control) of the treated cells.

[2] = tested on: B16 Melanoma; experiment: B16 Melanoma in mice (Test 5); format: in vivo, mice (BDF1); settings: 3.2 mg/kg i.p., days 1-9; in physiological saline
Procedure: (§1) B16 Melanoma (1:10 brei, 0.5 ml), maintained s.c. by serial passage in female C57BL/6 mice, was implanted i.p. to female BDF1 mice on day 0, and the test compounds or vehicle were given i.p. to the mice once a day on days 1-9.
(§2) Ten mice were used for each test group, and twenty mice were used for each vehicle-treated control group.
(§3) Drug efficacy against the ascitic tumors is expressed as percentage of the median (mean) survival time of the test group to that of the control group. [formula] .circle.2 Results

[3] = tested on: L1210 Leukemia; experiment: L1210 Leukemia ascitic tumor in mice (Test 5); format: in vivo, mice (BDF1 or CDF1); settings: 10.0 mg/kg i.p., days 1-9, CDF1 mice; in physiological saline
Excerpt: L1210 Leukemia (1×10^5 cells), maintained i.p. by serial passage in female DBA/2 mice, was implanted i.p. to female BDF1 or CDF1 mice on day 0, and the test compounds or vehicle were given i.p. to the mice once a day on days 1-9.
as §2, §3

[4] = Solubility
[5] = tested on: Human MX-1 mammary; experiment: Human MX-1 mammary tumor in nude mice (Test 9); format: in vivo, human (in BALB/c nu/nu mice); settings: 32. mg/kg (so in the source) i.v., days 10, 14 & 17; evaluation day 21
Procedure: (§4) Human LX-1 lung or MX-1 mammary (each fragment, 2×2×2 mm), maintained s.c. by serial passage in male BALB/c nu/nu mice, was implanted s.c. to male BALB/c nu/nu mice on day 0, and the test compounds or vehicle were given i.v. to the mice once a day on specified days in Table 9.
(§5) Tumor weight was calculated as follows: (Tumor length and width were measured by caliper.)
(§6) Tumor weight (mg)=1/2×a×b^2, where a represents length and b represents width (mm).
(§7) Tumor weights (initial) and (last) were calculated on the first injection day (just before dosing) and on day 21, 27 or 28 (the last evaluation day), respectively.
(§8) Five mice were used for each test group and 5 or 10 mice were used for each vehicle-treated control group.
(§9) Drug efficacy was expressed as percentage of mean tumor weight of the test group to that of the control group. [formula]

[6] = tested on: Colon 38 carcinoma; experiment: in vivo murine solid tumor model, Colon 38 carcinoma (Test 7); parameters: species or system mice; settings: 10.0 mg/kg i.v., days 1, 4, 7 and 10; tumor weight on day 21
Procedure: Colon 38 carcinoma (fragment, 2×2×2 mm), maintained s.c. by serial passage in female C57BL/6 mice, was implanted s.c. to female BDFhd 1 mice on day 0, and the test compounds or vehicle were given i.v. to the mice once a day on days 1, 4, 7 and 10. Tumor weight was measured on day 21.
as §5, §6
Ten mice were used for each test group or vehicle-treated control group.
Drug efficacy against the solid tumor is expressed as percentage of the mean tumor weight of the test group to that of the control group. [formula]

[7] = tested on: B16 Melanoma; experiment: B16 Melanoma in mice, graded doses (Test 11); format: in vivo, mice (BDF1); settings: days 1-9
Procedure: as §1, §2
(§10) Compound R (which was dissolved in 10% polyoxyethylated (60 mol) hydrogenated castor oil in physiological saline solution)
(§11) Drug efficacy against the ascitic tumors is expressed as percentage of the median (mean) survival time of the test group to that of the control group. [formula]

[8] = tested on: L1210 Leukemia; experiment: L1210 Leukemia in mice, graded doses (Test 11); format: in vivo, mice (CDF1); settings: days 1-9
Procedure: L1210 Leukemia (1×10^5 cells), maintained i.p. by serial passage in female DBA/2 mice, was implanted i.p. to female CDF1 mice on day 0, and the test compounds or vehicle were given i.p. to the mice once a day on days 1-9.
as §2, §10, §11

[9] = tested on: Human LX-1 lung; experiment: Human LX-1 lung tumor in nude mice (Test 9); format: in vivo, human (in BALB/c nu/nu mice); settings: 5.6 mg/kg i.v., days 10, 14 & 17; evaluation day 21
Procedure: as §4, §5, §6, §7, §8, §9

C=C1c2c(OC(C)=O)cc(C=O)cc2N2CC3C(N3C(C)=O)C1(O)O2 (stereo not drawn) [Compound S, 11-Acetyl-4-formyl-9-hydroxy-8-methylene-14-oxa-1,11-diazatetracyclo[7.4.1.0^2,7.0^10,12]tetradeca-2,4,6-trien-6-yl acetate]
IC50 [1]: 0.02 µg/mL

COc1cc(C=O)cc2c1C(COC(N)=O)C1(OC(C)=O)ON2CC2C1N2C(C)=O (stereo not drawn) [Compound V, 11-Acetyl-8-carbamoyloxymethyl-4-formyl-6-methoxy-14-oxa-1,11-diazatetracyclo[7.4.1.0^2,7.0^10,12]tetradeca-2,4,6-trien-9-yl acetate]
IC50 [1]: 0.02 µg/mL

COc1cc(C=O)cc2c1C(COC(N)=O)C1(O)ON2CC2C1N2C(C)=O (stereo not drawn) [Compound W, 11-Acetyl-4-formyl-9-hydroxy-6-methoxy-14-oxa-1,11-diazatetracyclo[7.4.1.0^2,7.0^10,12]tetradeca-2,4,6-trien-8-ylmethyl carbamate]
IC50 [1]: 0.01 µg/mL (≈ 0.0265 µM)

CC(=O)OCc1cc(OC(C)=O)c2c(c1)N1CC3C(N3C(C)=O)C(O)(O1)C2COC(N)=O (stereo not drawn) [Compound T, 11-Acetyl-4-acetoxymethyl-8-carbamoyloxymethyl-9-hydroxy-14-oxa-1,11-diazatetracyclo[7.4.1.0^2,7.0^10,12]tetradeca-2,4,6-trien-6-yl acetate]
IC50 [1]: 0.02 µg/mL

CC(=O)Oc1cc(C=O)cc2c1C(COC(N)=O)C1(OC(C)=O)ON2CC2C1N2C(C)=O (stereo not drawn) [Compound R, 11-Acetyl-4-formyl-8-carbamoyloxymethyl-14-oxa-1,11-diazatetracyclo[7.4.1.0^2,7.0^10,12]tetradeca-2,4,6-trien-6,9-diyl diacetate]
T/C [2]: > 316% | T/C [3]: 197% | Solubility ([4]; acetone): Soluble | Solubility ([4]; chloroform): Soluble | Solubility ([4]; methanol): Soluble | Solubility ([4]; water): Insoluble | IC50 [1]: 0.05 µg/mL | 1-T"/C" [5]: 99% | 1-T'/C' [6]: 100% | T/C ([7]; 0.0032 mg/kg i.p.): 106% | T/C ([7]; 0.01 mg/kg i.p.): 122% | T/C ([7]; 0.032 mg/kg i.p.): 166% | T/C ([7]; 0.1 mg/kg i.p.): 219% | T/C ([7]; 0.32 mg/kg i.p.): 213% | T/C ([7]; 0.56 mg/kg i.p.): > 291% | T/C ([7]; 1.0 mg/kg i.p.): > 375% | T/C ([7]; 1.8 mg/kg i.p.): > 375% | T/C ([7]; 3.2 mg/kg i.p.): 225% | T/C ([7]; 5.6 mg/kg i.p.): 134% | T/C ([7]; 10 mg/kg i.p.): 66% | T/C ([8]; 0.1 mg/kg i.p.): 125% | T/C ([8]; 0.32 mg/kg i.p.): 131% | T/C ([8]; 1.0 mg/kg i.p.): 156% | T/C ([8]; 3.2 mg/kg i.p.): 150% | T/C ([8]; 5.6 mg/kg i.p.): 163% | T/C ([8]; 10 mg/kg i.p.): 106% | T/C ([8]; 18 mg/kg i.p.): 88% | 1-T"/C" [9]: 90%

CC(=O)OCc1cc(OC(C)=O)c2c(c1)N1CC3C(N3C(C)=O)C(OC(C)=O)(O1)C2COC(N)=O (stereo not drawn) [Compound U, 4-Acetoxymethyl-11-acetyl-8-carbamoyloxymethyl-14-oxa-1,11-diazatetracyclo[7.4.1.0^2,7.0^10,12]tetradeca-2,4,6-trien-6,9-diyl diacetate]
IC50 [1]: 0.01 to 0.02 µg/mL
